One assay relates to CALU-6. The experiment in a line: Cell growth inhibition test, CALU-6. In kind it is cell-based. As to conditions: Homo sapiens, 72 h; CALU-6, Lung cancer, 3 days, CellTiter-Glo. As to the method: (§1) A cell growth inhibition test was carried out by treating a cultured cancer cell line with a test compound for a given period and then counting the number of viable cells by CellTiter-Glo Luminescent Cell Viability Assay (manufactured by Promega Corp.).
(§2) The following cells were inoculated to a 384-well plate containing the compound prepared in advance at predetermined concentrations. […]
(§3) The cells thus inoculated were cultured at 37° C. for 3 days under 5% CO2. […] Then, luminescence intensity was measured using a plate reader.
(§4) The number of viable cells and luminescence intensity have been confirmed to correlate with each other. Therefore, the rate of cell growth was calculated according to the following expression: Rate of cell growth (T/C %) of a test compound-supplemented well=100×[(B−C)/(A−C)] wherein A represents the luminescence intensity (final culture date) of a test compound-free well; B represents the luminescence intensity (final culture date) of a test compound-containing well; and C represents the luminescence intensity (day of cell inoculation) of a well at the start of contact of the cells with the test compound.
(§5) T/C % at the concentration of each of the serially diluted test compounds was determined. […]

A further assay relates to BT-20. The experiment in a line: Cell growth inhibition test, BT-20. In kind it is cell-based. Particulars: Homo sapiens, 72 h; BT-20, Breast cancer, 3 days, CellTiter-Glo. On the procedure: as §1, §2, §3, §4, §5
(In ATP-based viability assays light output follows the ATP content of the culture.)

In a further assay the test system is RL952. The experiment in a line: Cell growth inhibition test, RL952. In kind it is cell-based. Particulars: Homo sapiens, RL95-2, 72 h; RL952, Endometrial cancer, 3 days, CellTiter-Glo. As to the method: as §1, §2, §3, §4, §5
Another assay concerns SW948. The experiment in a line: Cell growth inhibition test, SW948. It is filed as cell-based. As to conditions: Homo sapiens, 72 h; SW948, Large intestine cancer, 3 days, CellTiter-Glo. As to the method: as §1, §2, §3, §4, §5
Another assay has as its system K-562. Description: Cell growth inhibition test, K-562. It is filed as cell-based. Particulars: Homo sapiens, K562, 72 h; K-562, Leukemia, 3 days, CellTiter-Glo. As to the method: as §1, §2, §3, §4, §5
For assay [1], the system named is human lymphoma cell line RAMOS cells. The experiment in a line: Cell growth inhibition test using RAMOS cell, ATP assay (CellTiter-Glo). It is filed as cell-based. As to conditions: Homo sapiens, Ramos, 72 h, cultured 3 days, 50% growth inhibition concentration. The essentials: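 RAMOS cells seeded at 4000 cells/well with compound and cultured 3 days at 37° C, 5% CO2; viability by CellTiter-Glo luminescence. Growth rate T/C % = 100×[(B−C)/(A−C)] using day-0 and final readings; GI50 interpolated from the two concentrations bracketing 50% growth.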

In the next assay the test system is A375. The experiment in a line: Cell growth inhibition test, A375. It is filed as cell-based. Particulars: Homo sapiens, A-375, 72 h; A375, Skin cancer, 3 days, CellTiter-Glo. On the procedure: as §1, §2, §3, §4, §5
The test system of assay [2] is Skin cancer cell line A375 cells. The experiment in a line: Antitumor test, mouse subcutaneous transplantation model, A375. In kind it is in vivo. As to conditions: A375 in nude mice, 4 consecutive days, tumor measured next day. From the text: In vivo test of test compound: Antitumor test using mouse subcutaneous transplantation model
Skin cancer cell line A375 cells were dissociated from a culture flask by trypsin treatment, then suspended in a DMEM medium (Life Technologies Corp.) containing 10% FBS, and then centrifuged to remove the supernatant. The cells were washed with this medium twice and then suspended in PBS. The cell suspension was subcutaneously transplanted at a dose of 3×10^6 cells/mouse to the right axillary regions of 6-week-old nude mice (BALB/cAJc1-nu/nu, CLEA Japan, Inc.). The test was conducted by using cancer-bearing mice having an estimated tumor volume (major axis×minor axis×minor axis/2) of 75 to 150 mm3 and grouping the cancer-bearing mice without significant difference in average estimated tumor volume from a negative control group. The compound of Example 113 was suspended in solvent (EtOH/DMA/Solutol HS-15/PEG400/5% HMPC). The suspension was orally administered to each mouse twice a day (BID) at a dose of 50, 100, or 200 mg/kg for 4 consecutive days. On the next day, the tumor sizes were measured.
The rate of tumor growth inhibition was also calculated in this test according to the following expression and is shown in a table.
Rate of tumor growth inhibition (%)=100−(Average value of the tumor volumes of the test compound administration group)/(Average value of the tumor volumes of the vehicle administration group)×100.

Consider three compounds from patent publication US20170107207A1, “AMINOPYRAZOLONE DERIVATIVE” (DAIICHI SANKYO COMPANY, LIMITED, priority 2014, published 2017).

By GI50 is commonly meant the concentration that inhibits growth by half.

`CCOc1ccc(Cl)cc1C(=O)NCC(C)(C)CC(=O)Nc1c([C@H](C)CN(C)C)n(C)n(-c2ccccc2)c1=O` [Example 68, 5-Chloro-N-[4-({5-[(1R)-2-(dimethylamino)-1-methylethyl]-1-methyl-3-oxo-2-phenyl-2,3-dihydro-1H-pyrazol-4-yl}amino)-2,2-dimethyl-4-oxobutyl]-2-ethoxybenzamide]: the GI50 with CALU-6 was 0.43 µM; in the assay with BT-20, 0.59 µM; with RL952, 0.53 µM; with SW948 it was 3.9 µM; in the assay with K-562, 0.24 µM; in assay [1], 0.14 µM. The compound further came in with a GI50 in the assay with A375 of 0.28 µM.

As for `CCOc1ncc(Cl)cc1C(=O)NCC(C)(C)CC(=O)Nc1c([C@H](C)CN(C)C)n(C)n(-c2ccccc2)c1=O` [Example 73, 5-Chloro-N-[4-({5-[(1R)-2-(dimethylamino)-1-methylethyl]-1-methyl-3-oxo-2-phenyl-2,3-dihydro-1H-pyrazol-4-yl}amino)-2,2-dimethyl-4-oxobutyl]-2-ethoxypyridine-3-carboxamide], the GI50 amounted to 0.78 µM in the assay on CALU-6; 1.3 µM with BT-20; 0.89 µM in the assay on RL952; 4.2 µM with SW948; 0.56 µM in the assay with K-562; 0.31 µM in assay [1]. It took 0.56 µM to inhibit growth in the assay with A375 by half (GI50).

With `CCOc1cc(F)c(Cl)cc1C(=O)NCC(C)(C)CC(=O)Nc1c(COC)n(C)n(-c2ccccc2)c1=O` [Example 113, 5-Chloro-2-ethoxy-4-fluoro-N-(4-{[5-(methoxymethyl)-1-methyl-3-oxo-2-phenyl-2,3-dihydro-1H-pyrazol-4-yl]amino}-2,2-dimethyl-4-oxobutyl)benzamide], the concentration for 50% growth inhibition (GI50) in the assay with CALU-6 amounted to 0.68 µM; in the assay with BT-20, 0.85 µM; in the assay with RL952 it was 0.87 µM; in the assay on SW948 it was 1.4 µM; with K-562 it was 0.63 µM; in assay [1], 0.13 µM. This compound also displayed a GI50 in the assay on A375 of 0.26 µM. In addition, the “Rate of tumor growth inhibition (%)” value turned out to be 19% in assay [2] (50 mg/kg orally BID), 61% in assay [2] (100 mg/kg orally BID) and 86% in assay [2] (200 mg/kg orally BID).
